Experimental data taken from patent US20140357512A1, “HISTONE DEACETYLASE (HDAC) BIOMARKERS IN MULTIPLE MYELOMA” (priority 2013, published 2014).

Test system: human myeloma cell line MM.1S
Assay: SILAC acetylated-lysine peptide profiling, HDAC inhibitor vs DMSO (light/heavy ratio)
Format: cell-based
Text: An embodiment of the invention comprises utilizing the SILAC method in order to quantitate changes in protein expression between two or more populations of cells. The SILAC method is a technique based on mass spectrometry that detects differences in protein abundance among samples using non-radioactive isotopic labeling. The SILAC method is known in the art, and described in detail in Ong et al., “Stable Isotope Labeling by Amino Acids in Cell Culture, SILAC, as a Simple and Accurate Approach to Expression Proteomics”, Molecular & Cellular Proteomics, vol. 1, pp. 376-386 (2002), which is incorporated herein by reference in its entirety.
Briefly, the SILAC method involves growing two populations of cells in cell culture. The first population of cells is grown in growth media containing normal amino acids (“normal media”). The second population of cells is grown in media lacking a standard essential amino acid (such as lysine), but is then supplemented with a non-radioactive, isotopically labeled form of that essential amino acid (such as lysine labeled with ^13C atoms, rather than normal ^12C atoms), which is called “heavy media”. When the two populations of cells are each growing in the medium, they incorporate the amino acids into all of their proteins. The growth of cells maintained in the heavy media is no different from that in normal media. All peptides containing the heavy amino acids are heavier than their normal counterparts. The cells from each of the two populations of cells are lysed. The lysates from each of the two cell populations are then combined. The combined cell lysates are then analyzed by mass spectrometry. Pairs of chemically identical peptides of different stable isotope composition can be differentiated in a mass spectrometer due to their difference in mass. The ratio of peak intensities in the mass spectrum for such peptide pairs reflects the abundance ratio for the two proteins.
This example describes SILAC studies that were performed to compare the effects of three different HDAC inhibitors (Compound A, Compound B, and tubastatin A) to a control on a human multiple myeloma cell line. The HDAC inhibitors were also compared amongst themselves to determine differences in their effects.
A human myeloma cell line MM.1S was grown using either ^12C (light) or ^13C (heavy) lysine containing culture medium. The “heavy” cells were treated with DMSO as the control, and the “light” cells were treated with a single HDAC inhibitor at 37° C. for 6 hours. The heavy and light cells were lysed, and the lysates were mixed in 1:1 ratio and digested with the protease trypsin. The acetylated lysine containing peptides (due to the action of the HDAC inhibitor) in the digested peptide pool were captured by a non-specific anti-acetylated lysine antibody cocktail (the antibodies identify both light and heavy acetylated peptides), and subjected to mass spectrometry analysis in order to identify thousands of individual peptides.
Thousands of peptides were identified in pairs (^12C and ^13C) due to their known mass differences. The amino acid sequence and quantitative ratio (Light/Heavy) of a given peptide in two differentially treated cell lysates were then determined and annotated with their possible protein (gene) sources.
As stated above, three HDAC inhibitors (Compound A, Compound B, and Tubastatin A) were used. Thus, the SILAC method was performed three times, with a different HDAC inhibitor compared to a control each time. Accordingly, there are three pairs of quantitative data in the table below, i.e., Compound A:DMSO, Compound B:DMSO, and Tubastatin A:DMSO. A cut-off of 1.30 fold of change (increase or decrease) was then used to determine “changed” or “+” in the table, and any peptides with a fold of change less than 1.3 fold were determined to be “unchanged” or “0” in the table. Those peptides that were not identified were marked as “NA” in the table. […]

## O=C(CCCCCCNC(=O)c1cnc(N(c2ccccc2)c2ccccc2)nc1)NO [Compound A, 2-(diphenylamino)-N-(7-(hydroxyamino)-7-oxoheptyl)pyrimidine-5-carboxamide]
VDAC3 [12], log 2 scale, drug vs DMSO
  L/H ratio of acetylated peptide (ac)[…](ac)AAK (SEQ ID NO: 6): 0.00
VDAC3 [63], log 2 scale, drug vs DMSO
  L/H ratio of acetylated peptide YK(ac)[…] (SEQ ID NO: 117): 0.00
VGIVGK(ac)YGTR (SEQ ID NO: 250), 60S ribosomal protein L37a [13], RPL37A
  light to heavy ratio (L/H ratio) of acetylated peptide, log 2 scale: −0.44
VIM [104], log 2 scale, drug vs DMSO
  L/H ratio of acetylated peptide TNEK(ac)VELQELNDR (SEQ ID NO: 122): 0.00
VIM [120], log 2 scale, drug vs DMSO
  L/H ratio of acetylated peptide FANYIDK(ac)VR (SEQ ID NO: 118): 0.00
VIM [139], log 2 scale, drug vs DMSO
  L/H ratio of acetylated peptide […](ac)GQGK (SEQ ID NO: 119): 0.00
VIM [294], log 2 scale, drug vs DMSO
  L/H ratio of acetylated peptide SK(ac)[…] (SEQ ID NO: 121): 0.00
VIM [373], log 2 scale, drug vs DMSO
  L/H ratio of acetylated peptide LQDEIQNMK(ac)EEMAR (SEQ ID NO: 120): 0.00
Vesicle-trafficking protein SEC22b [38], SEC22B, drug:DMSO
  light to heavy ratio (L/H ratio) of acetylated peptide […](ac)QLFR (SEQ ID NO: 321): 1.00 log 2
Vimentin [188], gene VIM, drug:DMSO
  light to heavy ratio (L/H ratio), log 2 scale, acetylated peptide EK(ac)LQEEMLQR (SEQ ID NO: 762): 0.92
Vimentin [445], VIM, drug:DMSO
  light to heavy ratio (L/H ratio) of acetylated peptide TLLIK(ac)TVETR (SEQ ID NO: 269): 0.45 log 2
X-ray repair cross-complementing protein 5 [265], gene XRCC5, inhibitor:DMSO
  light to heavy ratio (L/H ratio) of acetylated peptide IAAYK(ac)SILQER (SEQ ID NO: 531): −0.41 log 2
X-ray repair cross-complementing protein 5 [648], gene XRCC5, inhibitor:DMSO
  light to heavy ratio (L/H ratio) of acetylated peptide EEAIK(ac)FSEEQR (SEQ ID NO: 509): −0.60 log 2
X-ray repair cross-complementing protein 5 [660], gene XRCC5, inhibitor:DMSO
  light to heavy ratio (L/H ratio) of acetylated peptide FNNFLK(ac)ALQEK (SEQ ID NO: 545): 0.39 log 2
X-ray repair cross-complementing protein 6 [605], XRCC6, drug:DMSO
  light to heavy ratio (L/H ratio) of acetylated peptide […](ac)HFQD (SEQ ID NO: 355): 0.00 log 2
XRCC5 [665], log 2 scale, drug vs DMSO
  L/H ratio of acetylated peptide ALQEK(ac)VEIK (SEQ ID NO: 123): 0.00
YNCDK(ac)MICR (SEQ ID NO: 254), Ubiquitin-605 ribosomal protein L40 [93], UBA52
  light to heavy ratio (L/H ratio) of acetylated peptide, log 2 scale: 0.38
[3-methyl-2-oxobutanoate dehydrogenase [lipoamide]] kinase mitochondrial [192], BCKDK, drug:DMSO
  light to heavy ratio (L/H ratio) of acetylated peptide YFLDK(ac)TLTSR (SEQ ID NO: 293): 0.68 log 2
[…](ac)MVAAK (SEQ ID NO: 491), Cyclic AMP-dependent transcription factor ATF-4 [267], ATF4
  L/H ratio of acetylated peptide: −1.00 log 2
[…](ac)YPLR (SEQ ID NO: 493), Isoform 1 of NADH-cytochrome b5 reductase 3 [42], CYB5R3
  L/H ratio of acetylated peptide: −1.00 log 2
Annexin A4 [255], ANXA4, drug:DMSO
  light to heavy ratio (L/H ratio) of acetylated peptide SAYFAEK(ac)LYK (SEQ ID NO: 292): 0.67 log 2
cDNA FLJ45706 fis clone FEBRA2028457 highly similar to Nucleolin [470], gene NCL, inhibitor:DMSO
  light to heavy ratio (L/H ratio) of acetylated peptide TLFVK(ac)[…] (SEQ ID NO: 511): −0.59 log 2
cDNA FLJ55380 highly similar to Protein kinase C-binding protein 1 [440], ZMYND8, drug:DMSO
  light to heavy ratio (L/H ratio) of acetylated peptide ILMSK(ac)PVLSGGTGR (SEQ ID NO: 291): 0.67 log 2
cDNA FLJ55574 highly similar to Calnexin [138], CANX, drug:DMSO
  light to heavy ratio (L/H ratio) of acetylated peptide YDGK(ac)WEVEEMK (SEQ ID NO: 274): 0.48 log 2
cDNA FLJ55574 highly similar to Calnexin [172], CANX, drug:DMSO
  light to heavy ratio (L/H ratio) of acetylated peptide LNK(ac)PFLFDTK (SEQ ID NO: 327): 0.00 log 2
cDNA FLJ56047 highly similar to A kinase anchor protein 1 mitochondrial [667], gene AKAP1, inhibitor:DMSO
  light to heavy ratio (L/H ratio) of acetylated peptide LIGK(ac)QGR (SEQ ID NO: 629): 0.49 log 2
cDNA FLJ56303 highly similar to Translocon-associated protein subunit beta [46], SSR2, drug:DMSO
  light to heavy ratio (L/H ratio) of acetylated peptide LLASK(ac)SLLNR (SEQ ID NO: 322): 1.00 log 2
cDNA FLJ75110 highly similar to Homo sapiens PHD finger protein 15 (PHF15) mRNA [38], gene PHF15, inhibitor:DMSO
  light to heavy ratio (L/H ratio) of acetylated peptide LPSSTK(ac)SGWPR (SEQ ID NO: 500): −0.78 log 2
cDNA FLJ77177 highly similar to Homo sapiens arginine-rich mutated in early stage tumors (ARMET) mRNA [97], MANF, drug:DMSO
  light to heavy ratio (L/H ratio) of acetylated peptide IINEVSK(ac)[…] (SEQ ID NO: 341): 0.00 log 2
cDNA FLJ77422 highly similar to Homo sapiens RNA binding protein autoantigenic (hnRNP-associated with lethal yellow homolog (mouse)) transcript variant 1 mRNA (Fragment) [165], RALY, drug:DMSO
  light to heavy ratio (L/H ratio) of acetylated peptide TNVPVK(ac)LFAR (SEQ ID NO: 348): 0.00 log 2
Histone cluster 2 H3 pseudogene 2 [80], HIST2H3PS2, drug:DMSO
  light to heavy ratio (L/H ratio) of acetylated peptide EIAQEFK(ac)TDLR (SEQ ID NO: 337): 0.00 log 2
membrane-associated progesterone receptor component 2 [159], PGRMC2, drug:DMSO
  light to heavy ratio (L/H ratio) of acetylated peptide GSK(ac)[…] (SEQ ID NO: 265): 0.43 log 2
Pyruvate dehydrogenase E1 component subunit alpha somatic form mitochondrial isoform 2 precursor [351], PDHA1, drug:DMSO
  light to heavy ratio (L/H ratio) of acetylated peptide SK(ac)SDPIMLLK (SEQ ID NO: 255): 0.39 log 2
Regulator of differentiation 1 isoform 2 [64], ROD1, drug:DMSO
  light to heavy ratio (L/H ratio) of acetylated peptide VTNLLMLK(ac)GK (SEQ ID NO: 350): 0.00 log 2
Regulator of differentiation 1 isoform 2 [236], gene ROD1, inhibitor:DMSO
  light to heavy ratio (L/H ratio) of acetylated peptide LTSLNVK(ac)YNNDK (SEQ ID NO: 590): 0.44 log 2
Triosephosphate isomerase isoform 2 [231], TPI1, TPI1P1, drug:DMSO
  light to heavy ratio (L/H ratio) of acetylated peptide GWLK(ac)[…] (SEQ ID NO: 278): 0.54 log 2
